According to publication PMC7573825 (Frontiers in Pharmacology, 2020):
Where two headings read alike, the source gives them in different places.

Tests used:
most sensitive bacteria = tested on: most sensitive bacteria; set-up: method as in Bhongsatiern et al., 2015; Bruniera et al., 2015; settings: ref Bhongsatiern et al., 2015, Bruniera et al.; cited from earlier work
[1] = Population pharmacokinetic modeling (NONMEM, one-compartment) of intravenous vancomycin from TDM trough plasma concentrations in kidney transplant recipients; settings: for Typical value of V / Typical value of CL: intravenous vancomycin, 56 adult kidney transplant recipients
Description: All these patients adopted routine therapeutic drug monitoring. The transplant surgeries were performed between March 8 and June 21 in 2017. […] The glomerular filtration rate (GFR) was estimated from the sCr according to the published formula [GFR (ml min^-1): GFR = 2.104*sCr(μM) - 1.154*age - 1.154*(0.742 for female)*1.233(correction for Chinese)]
Other concomitantly used drugs, such as prednisone, mycophenolate mofetil, cyclosporine, and tacrolimus were administered orally or intravenously once or twice a day, and their usages and doses were based on clinical necessity and safety.
The venous blood was centrifuged at 1,000 g for 4 min and a volume of 100 ml supernatant plasma was mixed with 100 ml of 5% perchloric acid solution. The mixture was fully vortex blended and then centrifuged at 14,000 g for 5 min. […] AHC-C18 column (250 mm × 4.6 mm, 5 μm; ShimadzuCo., Japan), a precolumn (10 mm × 4 mm, 5 μm; ShimadzuCo.), and a PDA detector (ShimadzuCo.) were used in the workstation. The mobile phase was acetonitrile in 0.01 M KH2PO4 solution (7:93 in volume), the flow rate was 0.5 ml min^-1, the column temperature was 30°C, and the detection wavelength was 236 nm. […] After using the same parallel method for sample preparation as mentioned above, the standard samples were simultaneously injected with the samples for testing.
Data processing and pharmacokinetic analysis were carried out with the nonlinear mixed-effects model program (NONMEM®, Version 7.4; Icon Inc, PA, USA), compiled with GFortran (Version 4.9.2; http://www.gfortran.org). The output was explored by the R package (Version 3.3.1; http://www.r-project.org) and Xpose (Version 4.5.3; http://xpose.sourceforge.net). The first-order conditional estimation method with η-ε interaction (FOCE-I) was used throughout the model-building procedure.
First, we established the base compartment model. For the statistical modeling, exponential model was used as the inter-individual variation model:
For the residual variation modeling, additive, proportional, and mixed models were applied. The additive and proportional mixed model is as follows:
In the forward model building step, the covariates were assessed for their suitability depending on the changes in the objective function values (OFV) and the inter-individual variations and residual variations. Taking an example with df = 1, when the decrease of OFV is more than 3.84 (P < 0.05, df = 1), the introduced factor can be considered as a significant covariate for the parameter model. During the backward analysis, a covariate was removed from the model every time, except when the OFV value increased by more than 6.63 units (P < 0.01, df = 1).
For the effects of continuous variables on pharmacokinetic parameters, linear, exponential, and power function models were used. The linear function model was:

[2] = set-up: method as in 3 sources, one per row (each row's own in cited_ref): ref Adane et al., 2015; Lin et al., 2016 ||| ref Ji et al., 2018 ||| ref Lin et al., 2019; settings: ref Adane et al., 2015, Lin et al., 2016, cited from earlier work

## CN[C@H](CC(C)C)C(=O)N[C@H]1C(=O)N[C@@H](CC(N)=O)C(=O)N[C@H]2C(=O)N[C@H]3C(=O)N[C@H](C(=O)N[C@H](C(=O)O)c4cc(O)cc(O)c4-c4cc3ccc4O)[C@H](O)c3ccc(c(Cl)c3)Oc3cc2cc(c3O[C@@H]2O[C@H](CO)[C@@H](O)[C@H](O)[C@H]2O[C@H]2C[C@](C)(N)[C@H](O)[C@H](C)O2)Oc2ccc(cc2Cl)[C@H]1O [vancomycin]
Most sensitive bacteria
  minimum inhibitory concentration (MIC): 0.1 to 2 µg/mL
[1]; base model, one-compartment, 195 plasma Cmin
  Typical value of V: 45.5 L
[1]; base model, one-compartment, 195 plasma Cmin, HPLC, FOCE-I
  Typical value of CL: 1.84 L/h
[1]; final model, CL=2.08×[(WT/59.95)^1.07]×[(GFR/36.67)^0.698], 195 plasma Cmin
  Typical value of CL: 2.08 L/h
[1]; final model, V=63.2×[(WT/59.95)^0.934]
  Typical value of V: 63.2 L
[1]; final model, power function exponent
  Influential factor for WT on V (θ3): 0.934
[2]; adult Chinese patients with post-craniotomy meningitis, typical creatinine clearance rate 104.7 ml/min
  Vancomycin clearance: 7.56 L/h
[2]; patients with augmented renal clearance
  Vancomycin clearance: 8.52 L/h
